The values that follow come from patent US20250154138A1, “Small Molecule IL-17A Modulators” (BeiGene, Ltd., priority 2022, published 2025).

Like-named read-outs stand apart in the source and are kept apart here.

The target of assay [1] is human IL-17A / human IL-17RA (Homo sapiens (Human), UniProt Q16552). Description: Human IL-17A biochemical assay (HTRF, blocking of IL-17A binding to IL-17RA). As to conditions: 0.4 nM IL-17A, 0.3 nM IL-17RA, max compound concentration 10 uM. In a few lines:
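Compounds (10-point, 2.7-fold dilution from 10 uM) preincubated 3 h at RT with 0.4 nM human IL-17A, followed by 1 h with 0.3 nM IL-17RA and 1 h with Tb-cryptate/XL665 antibodies; buffer 20 mM HEPES pH 7.5, 0.1% BSA. Inhibition derived from HTRF fluorescence ratio; IC50 by four-parameter logistic fitting.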

For assay [2], the system named is IL-17-induced GROα secretion from HT-29 cells. Description: GROα release assay in human colorectal adenocarcinoma epithelial cell (HT-29, ELISA). As to conditions: Homo sapiens, 10 ng/mL IL-17A, highest concentration 10 μM, read-out: Cellular assay HT29 cell/CXCL1 IC50. It is filed as cell-based. How it is done:
The purpose of the assay is to test the ability of a compound to neutralize IL17A proteins. IL17 can stimulate human epithelial cells to secrete GROα. The ability of one compound of the invention to neutralize IL-17-induced GROα secretion from the human colorectal adenocarcinoma epithelia cell line HT-29 is tested in this assay.
HT-29 cells (human colorectal adenocarcinoma epithelia cell, ATCC) were stimulated with IL-17A (Novoprotein, #C774) in final concentration of 10 ng/mL. The resultant GROα response was measured using an ELISA kit from Invitrogen (#88-52122). HT-29 cells were cultured in complete medium (McCoy's 5A medium+10% FBS) and maintained in a tissue culture flask using standard techniques. On day 1, detached the cell by using TrypLE (Gibco, #12605036) and used the complete medium to neutralize. The cells were centrifuged at 11,00 rmp for 4 minutes. Re-suspended the cell pellet in complete medium and seeded 50,000 HT-29 cells into the 96-well assay plate (Corning, 3599) at 135 μL complete medium per well. The cells were incubated for overnight, at 37° C./5% CO2 to adherent the plate. On day 2, prepared a 4-fold serial dilution of the tested compound in DMSO. The highest concentration of the compound was 10 μM. Transferred 2 μL of the serial diluted compound from the serial dilution plate into the reagent plate which was contained 198 μL complete medium with 100 ng/mL IL-17A per well. The compounds were incubated with the IL-17A for 15 minutes. 15 μL mixtures from reagent plate were transferred into the cell assay plate. Incubated the plate at 37° C./5% CO2 for 48 hours. After the incubation, on day 4, GROα level were measured with GROα ELISA as the manufacturer's instructions. 50 μL supernatant was collected form the assay plate to ELISA plate. ELISA plate was read at 450 nm on a microplate reader and compared to a standard calibration curve.
Data were processed using GraphPad Prism. GROα concentration was calculated from the standard curve. IC50 was determined using the equation log concentration (inhibitor) against response and fitted to four parameters.

Sequence of human IL-17A / human IL-17RA (Q16552 24-155): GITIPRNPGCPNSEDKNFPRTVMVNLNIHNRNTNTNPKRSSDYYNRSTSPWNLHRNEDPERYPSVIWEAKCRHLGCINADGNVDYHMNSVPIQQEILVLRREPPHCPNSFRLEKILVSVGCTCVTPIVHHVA

`CNC(=O)C1(N2CC(C(C)C)NC2=O)Cc2ccc(NC(=O)[C@@H](NC(=O)c3ccnn3C)C3CCCCC3)cc2C1` (stereo partly drawn) [Example 38, N-((1S)-1-cyclohexyl-2-((2-(4-isopropyl-2-oxoimidazolidin-1-yl)-2-(methylcarbamoyl)-2,3-dihydro-1H-inden-5-yl)amino)-2-oxoethyl)-1-methyl-1H-pyrazole-5-carboxamide]: the IC50 amounted to 46 nM in assay [1] and 156 nM in assay [2] (HT-29, 48 h).
The matching figures for `CNC(=O)C1(N2C[C@@H](C(C)C)NC2=O)Cc2ccc(NC(=O)[C@@H](NC(=O)c3ccnn3C)C3CCCCC3)cc2C1` (stereo partly drawn) [Example 39, N-((1S)-1-cyclohexyl-2-((2-((R)-4-isopropyl-2-oxoimidazolidin-1-yl)-2-(methylcarbamoyl)-2,3-dihydro-1H-inden-5-yl)amino)-2-oxoethyl)-1-methyl-1H-pyrazole-5-carboxamide]: 22.6 nM and 56.4 nM.
As to `CNC(=O)C1(N2C[C@@H](C(C)C)NC2=O)Cc2ccc(NC(=O)[C@@H](NC(=O)c3nonc3C)C3CCCCC3)cc2C1` (stereo partly drawn) [Example 40, N-((1S)-1-cyclohexyl-2-((2-((R)-4-isopropyl-2-oxoimidazolidin-1-yl)-2-(methylcarbamoyl)-2,3-dihydro-1H-inden-5-yl)amino)-2-oxoethyl)-4-methyl-1,2,5-oxadiazole-3-carboxamide], the IC50 in assay [1] stood at 25 nM; in assay [2] (HT-29, 48 h) it was 143 nM.
For `CNC(=O)C1(N2C[C@@H](C3CC3)NC2=O)Cc2ccc(NC(=O)[C@@H](NC(=O)c3ccnn3C)C3CCCCC3)cc2C1` (stereo partly drawn) [Example 41, N-((1S)-1-cyclohexyl-2-((2-((R)-4-cyclopropyl-2-oxoimidazolidin-1-yl)-2-(methylcarbamoyl)-2,3-dihydro-1H-inden-5-yl)amino)-2-oxoethyl)-1-methyl-1H-pyrazole-5-carboxamide] the same measures were 100 nM and 495 nM.
For `CNC(=O)C1(N2C[C@@H](Cc3ccccn3)NC2=O)Cc2ccc(NC(=O)[C@@H](NC(=O)c3ccnn3C)C3CCCCC3)cc2C1` (stereo partly drawn) [Example 43, N-((1S)-1-cyclohexyl-2-((2-(methylcarbamoyl)-2-((R)-2-oxo-4-(pyridin-2-ylmethyl)imidazolidin-1-yl)-2,3-dihydro-1H-inden-5-yl)amino)-2-oxoethyl)-1-methyl-1H-pyrazole-5-carboxamide], the IC50 came out at 1460 nM in assay [1] and 2380 nM in assay [2] (HT-29, 48 h).
As to `CNC(=O)C1(N2CC(C(C)(C)C)NC2=O)Cc2ccc(NC(=O)[C@@H](NC(=O)c3ccnn3C)C3CCCCC3)cc2C1` (stereo partly drawn) [Example 44, N-((1S)-2-((2-(4-(tert-butyl)-2-oxoimidazolidin-1-yl)-2-(methylcarbamoyl)-2,3-dihydro-1H-inden-5-yl)amino)-1-cyclohexyl-2-oxoethyl)-1-methyl-1H-pyrazole-5-carboxamide], the IC50 in assay [1] amounted to 47 nM; in assay [2] (HT-29, 48 h), 231 nM.
For `CNC(=O)C1(N2C[C@@H](C(C)C)NC2=O)Cc2ccc(NC(=O)[C@@H](NC(=O)c3ccnn3C)C3CCCC3)cc2C1` (stereo partly drawn) [Example 46, N-((1S)-1-cyclopentyl-2-((2-((R)-4-isopropyl-2-oxoimidazolidin-1-yl)-2-(methylcarbamoyl)-2,3-dihydro-1H-inden-5-yl)amino)-2-oxoethyl)-1-methyl-1H-pyrazole-5-carboxamide] the same measures were 260 nM and 533 nM.
For `CNC(=O)C1(N2C[C@@H](C(C)C)NC2=O)Cc2ccc(NC(=O)[C@@H](NC(=O)c3ccnn3C)C3CCCCCC3)cc2C1` (stereo partly drawn) [Example 47, N-((1S)-1-cycloheptyl-2-((2-((R)-4-isopropyl-2-oxoimidazolidin-1-yl)-2-(methylcarbamoyl)-2,3-dihydro-1H-inden-5-yl)amino)-2-oxoethyl)-1-methyl-1H-pyrazole-5-carboxamide] the same measures were 11 nM and 11.6 nM.
`CNC(=O)C1(N2CC(C(C)c3ccccc3)NC2=O)Cc2ccc(NC(=O)[C@@H](NC(=O)c3ccnn3C)C3CCCCC3)cc2C1` (stereo partly drawn) [Example 48, N-((1S)-1-cyclohexyl-2-((2-(methylcarbamoyl)-2-(2-oxo-4-(1-phenylethyl)imidazolidin-1-yl)-2,3-dihydro-1H-inden-5-yl)amino)-2-oxoethyl)-1-methyl-1H-pyrazole-5-carboxamide]: the IC50 came to 161 nM in assay [1] and 1270 nM in assay [2] (HT-29, 48 h).
`CNC(=O)C1(N2C[C@@H](C(C)C)NC2=O)Cc2ccc(NC(=O)[C@@H](NC(=O)Oc3ccccc3)C3CCCCC3)cc2C1` (stereo partly drawn) [Example 51, phenyl ((1S)-1-cyclohexyl-2-((2-((R)-4-isopropyl-2-oxoimidazolidin-1-yl)-2-(methylcarbamoyl)-2,3-dihydro-1H-inden-5-yl)amino)-2-oxoethyl)carbamate]: the figures for the IC50 in assay [1] and in assay [2] (48 hours) were 686 nM and 2050 nM, respectively.
As for `CNC(=O)C1(N2C[C@@H](C(C)C)NC2=O)Cc2ccc(NC(=O)[C@@H](NC(=O)Cc3ccccc3)C3CCCCC3)cc2C1` (stereo partly drawn) [Example 53, 5-((S)-2-cyclohexyl-2-(2-phenylacetamido)acetamido)-2-((R)-4-isopropyl-2-oxoimidazolidin-1-yl)-N-methyl-2,3-dihydro-1H-indene-2-carboxamide], the IC50 amounted to 223 nM in assay [1] and 735 nM in assay [2] (HT-29, 48 h).
The matching figures for `CNC(=O)C1(N2C[C@@H](C(C)C)NC2=O)Cc2ccc(NC(=O)[C@@H](NC(=O)c3ccccc3)C3CCCCC3)cc2C1` (stereo partly drawn) [Example 54, 5-((S)-2-benzamido-2-cyclohexylacetamido)-2-((R)-4-isopropyl-2-oxoimidazolidin-1-yl)-N-methyl-2,3-dihydro-1H-indene-2-carboxamide]: 24 nM and 137 nM.
The matching figures for `CNC(=O)C1(N2C[C@@H](C(C)C)NS2(=O)=O)Cc2ccc(NC(=O)[C@@H](NC(=O)c3ccnn3C)C3CCCCC3)cc2C1` (stereo partly drawn) [Example 55, N-((1S)-1-cyclohexyl-2-((2-((R)-4-isopropyl-1,1-dioxido-1,2,5-thiadiazolidin-2-yl)-2-(methylcarbamoyl)-2,3-dihydro-1H-inden-5-yl)amino)-2-oxoethyl)-1-methyl-1H-pyrazole-5-carboxamide]: 1050 nM and 1820 nM.
On to `CNC(=O)C1(N2C[C@@H](Cc3ccc(OC)cc3)NC2=O)Cc2ccc(NC(=O)[C@@H](NC(=O)c3ccnn3C)C3CCCCC3)cc2C1` (stereo partly drawn) [Example 56, N-((1S)-1-cyclohexyl-2-((2-((R)-4-(4-methoxybenzyl)-2-oxoimidazolidin-1-yl)-2-(methylcarbamoyl)-2,3-dihydro-1H-inden-5-yl)amino)-2-oxoethyl)-1-methyl-1H-pyrazole-5-carboxamide], for which the IC50 came out at 20 nM in assay [1] and 23.7 nM in assay [2] (HT-29, 48 h).
The matching figures for `CNC(=O)C1(N2C[C@@H](Cc3cccs3)NC2=O)Cc2ccc(NC(=O)[C@@H](NC(=O)c3ccnn3C)C3CCCCC3)cc2C1` (stereo partly drawn) [Example 57, N-((1S)-1-cyclohexyl-2-((2-(methylcarbamoyl)-2-((R)-2-oxo-4-(thiophen-2-ylmethyl)imidazolidin-1-yl)-2,3-dihydro-1H-inden-5-yl)amino)-2-oxoethyl)-1-methyl-1H-pyrazole-5-carboxamide]: 334 nM and 2150 nM.
